US8192962B2, “Processes for detecting toxic substances” (Daikin Industries, Ltd., priority 2001, dated 2012)

System: Unknown protein yeast genes
Assay: DNA chip mRNA expression in yeast, unknown protein yeast genes (Table 1)
Type: cell-based, Saccharomyces cerevisiae S288C
Outline: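 Untreated cultures served as reference for log-phase S288C yeast given a growth-inhibiting, non-lethal toxicant dose for 2 h at 25° C. in YPD. Gene expression was measured on a whole-genome DNA chip from Cy3/Cy5-labeled cDNA.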

Measured: The level of expressed mRNA in the presence of chemical substance/The level of expressed mRNA in the absence of chemical substance

manganese ethylenebis(dithiocarbamate) [(8)]
8.1: yeast gene YLR460C
1.8: yeast gene YMR180C, incubated two hours with chemical substance | yeast gene YNL044W, incubated two hours with chemical substance
3.7: yeast gene YOL150C
0.6: yeast gene YDR545W, incubated two hours with chemical substance | yeast gene YNL074C, incubated two hours with chemical substance
0.4: yeast gene YFL032W, incubated two hours with chemical substance
0.8: yeast gene YAL053W, incubated two hours with chemical substance | yeast gene YDL072C, incubated two hours with chemical substance | yeast gene YGR101W, incubated two hours with chemical substance | yeast gene YJL066C, incubated two hours with chemical substance | yeast gene YJL151C, incubated two hours with chemical substance | yeast gene YNL115C, incubated two hours with chemical substance | yeast gene YOL036W, incubated two hours with chemical substance
1.6: yeast gene YJR054W, incubated two hours with chemical substance | yeast gene YMR316W, incubated two hours with chemical substance | yeast gene YOL071W, incubated two hours with chemical substance | yeast gene YOL162W, incubated two hours with chemical substance
1.1: yeast gene YDL204W, incubated two hours with chemical substance | yeast gene YDR330W, incubated two hours with chemical substance | yeast gene YER004W, incubated two hours with chemical substance | yeast gene YER175C, incubated two hours with chemical substance | yeast gene YGL047W, incubated two hours with chemical substance | yeast gene YGR221C, incubated two hours with chemical substance | yeast gene YIL087C, incubated two hours with chemical substance | yeast gene YJR008W, incubated two hours with chemical substance | yeast gene YKL086W, incubated two hours with chemical substance | yeast gene YLR054C, incubated two hours with chemical substance | yeast gene YLR149C, incubated two hours with chemical substance | yeast gene YMR067C, incubated two hours with chemical substance | yeast gene YMR191W, incubated two hours with chemical substance | yeast gene YNR068C, incubated two hours with chemical substance | yeast gene YOL047C, incubated two hours with chemical substance | yeast gene YOL082W, incubated two hours with chemical substance | yeast gene YOL117W, incubated two hours with chemical substance | yeast gene YOL131W, incubated two hours with chemical substance | yeast gene YOR019W, incubated two hours with chemical substance
1.2: yeast gene YBL048W | yeast gene YEL001C, incubated two hours with chemical substance | yeast gene YER035W, incubated two hours with chemical substance | yeast gene YER106W, incubated two hours with chemical substance | yeast gene YGL037C, incubated two hours with chemical substance | yeast gene YGL053W, incubated two hours with chemical substance | yeast gene YKL195W, incubated two hours with chemical substance | yeast gene YLR152C, incubated two hours with chemical substance | yeast gene YMR095C, incubated two hours with chemical substance | yeast gene YNL156C, incubated two hours with chemical substance | yeast gene YNL281W, incubated two hours with chemical substance | yeast gene YPL196W, incubated two hours with chemical substance
1.3: yeast gene YKR091W, incubated two hours with chemical substance | yeast gene YMR107W, incubated two hours with chemical substance | yeast gene YNL234W, incubated two hours with chemical substance | yeast gene YOL083W, incubated two hours with chemical substance
1.5: yeast gene YGR110W | yeast gene YJL057C, incubated two hours with chemical substance | yeast gene YMR097C, incubated two hours with chemical substance | yeast gene YOL032W, incubated two hours with chemical substance
0.7: yeast gene YDL222C, incubated two hours with chemical substance | yeast gene YGL199C, incubated two hours with chemical substance | yeast gene YIL023C, incubated two hours with chemical substance | yeast gene YJL152W, incubated two hours with chemical substance | yeast gene YKL153W, incubated two hours with chemical substance | yeast gene YML117W, incubated two hours with chemical substance | yeast gene YNL305C, incubated two hours with chemical substance | yeast gene YPL222W, incubated two hours with chemical substance
0.9: yeast gene YDR411C, incubated two hours with chemical substance | yeast gene YER158C, incubated two hours with chemical substance | yeast gene YFL024C | yeast gene YGR130C, incubated two hours with chemical substance | yeast gene YIL041W, incubated two hours with chemical substance | yeast gene YJL082W, incubated two hours with chemical substance | yeast gene YJL171C, incubated two hours with chemical substance | yeast gene YNL092W, incubated two hours with chemical substance | yeast gene YOR197W, incubated two hours with chemical substance | yeast gene YPR023C, incubated two hours with chemical substance
24.7: yeast gene YKL071W
1.9: yeast gene YBL107C | yeast gene YMR184W, incubated two hours with chemical substance
1.7: yeast gene YDR511W, incubated two hours with chemical substance | yeast gene YGR154C, incubated two hours with chemical substance
3.9: yeast gene YMR090W
1.4: yeast gene YER079W, incubated two hours with chemical substance | yeast gene YER163C, incubated two hours with chemical substance | yeast gene YHR138C, incubated two hours with chemical substance | yeast gene YJL161W, incubated two hours with chemical substance | yeast gene YLR387C, incubated two hours with chemical substance | yeast gene YMR009W, incubated two hours with chemical substance | yeast gene YPR151C, incubated two hours with chemical substance
3.0: yeast gene YGL121C
1.0: yeast gene YFL006W, incubated two hours with chemical substance | yeast gene YFL010C, incubated two hours with chemical substance | yeast gene YHR199C, incubated two hours with chemical substance | yeast gene YKL151C, incubated two hours with chemical substance | yeast gene YLR194C, incubated two hours with chemical substance | yeast gene YLR324W, incubated two hours with chemical substance | yeast gene YLR350W, incubated two hours with chemical substance | yeast gene YMR102C, incubated two hours with chemical substance | yeast gene YMR295C, incubated two hours with chemical substance | yeast gene YPL087W, incubated two hours with chemical substance | yeast gene YPL206C, incubated two hours with chemical substance
